pIC50: −log10 of the molar value.
Legend:
[1] = target: human JAK1 (a.a. 837-1142) (Homo sapiens (Human), UniProt P23458); assay: In vitro JAK kinase assay (HTRF), JAK1; type: biochemical; conditions: 1 mM ATP
Experimental: (§1) The catalytic activity of JAK1, JAK2 or JAK3 was assayed by measuring the phosphorylation of a biotinylated peptide. The phosphorylated peptide was detected by homogenous time resolved fluorescence (HTRF). […] Reactions are carried out at room temperature for 1 hour and then stopped with 20 μL 45 mM EDTA, 300 nM SA-APC, 6 nM Eu-Py20 in assay buffer (Perkin Elmer, Boston, Mass.). Binding to the Europium labeled antibody takes place for 40 minutes and HTRF signal was measured on a Fusion plate reader (Perkin Elmer, Boston, Mass.).

JAK2 (a.a. 828-1132) = JAK2 (a.a. 828-1132) (Homo sapiens (Human), UniProt O60674); assay: In vitro JAK kinase assay (HTRF), JAK2 relative to JAK1; type: biochemical; conditions: IC50 ratio, 1 mM ATP
Experimental: as §1

[2] = tested on: oxazolone-induced colitis in BALB/c mice; conditions: published results (Beattie et al); cited from earlier work

Chain of human JAK1 (a.a. 837-1142) (P23458 837-1142): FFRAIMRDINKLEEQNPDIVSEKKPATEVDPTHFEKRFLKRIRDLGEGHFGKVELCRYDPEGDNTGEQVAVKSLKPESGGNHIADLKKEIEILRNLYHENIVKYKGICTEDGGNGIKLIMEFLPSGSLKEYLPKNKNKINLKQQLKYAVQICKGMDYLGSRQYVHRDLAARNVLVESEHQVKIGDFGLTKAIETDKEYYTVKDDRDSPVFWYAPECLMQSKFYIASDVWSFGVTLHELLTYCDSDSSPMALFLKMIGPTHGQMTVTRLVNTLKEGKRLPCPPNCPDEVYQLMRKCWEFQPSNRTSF
Chain of JAK2 (a.a. 828-1132) (O60674 828-1132): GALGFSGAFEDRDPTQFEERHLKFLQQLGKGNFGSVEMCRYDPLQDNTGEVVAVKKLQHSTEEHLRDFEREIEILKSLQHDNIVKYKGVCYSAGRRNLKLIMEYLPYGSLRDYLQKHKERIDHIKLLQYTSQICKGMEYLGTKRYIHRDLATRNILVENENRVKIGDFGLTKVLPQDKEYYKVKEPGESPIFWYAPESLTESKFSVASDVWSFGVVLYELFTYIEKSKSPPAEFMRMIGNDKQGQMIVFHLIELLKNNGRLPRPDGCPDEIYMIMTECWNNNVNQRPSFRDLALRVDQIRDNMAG

Structure (SMILES) | pIC50 [1] | JAK2/JAK1 (JAK2 (a.a. 828-1132)) | effect on oxazolone-induced colitis [2]
N#CCC(C1CCN(c2cccc(Cl)n2)C1)n1cc(-c2ncnc3[nH]ccc23)cn1 (single isomer, unassigned) [Compound 6, 3-[1-(6-chloropyridin-2-yl)pyrrolidin-3-yl]-3-[4-(7H-pyrrolo[2,3-d]pyrimidin-4-yl)-1H-pyrazol-1-yl]propanenitrile] | > 8.00 | >10 | 
N#CCC1(n2cc(-c3ncnc4[nH]ccc34)cn2)CN(C2CCN(C(=O)Nc3ccc(F)cc3C(F)(F)F)CC2)C1 [Compound 2, 4-{3-(Cyanomethyl)-3-[4-(7H-pyrrolo[2,3-d]pyrimidin-4-yl)-1H-pyrazol-1-yl]azetidin-1-yl}-N-[4-fluoro-2-(trifluoromethyl)phenyl]piperidine-1-carboxamide] | > 8.00 | >10 | 
N#CCC1(n2cc(-c3ncnc4[nH]ccc34)cn2)CN(C2CCN(C(=O)c3ccnc(C(F)(F)F)n3)CC2)C1 [Compound 3, [3-[4-(7H-pyrrolo[2,3-d]pyrimidin-4-yl)-1H-pyrazol-1-yl]-1-(1-{[2-(trifluoromethyl)pyrimidin-4-yl]carbonyl}piperidin-4-yl)azetidin-3-yl]acetonitrile] | > 8.00 | >10 | 
C[C@@H](O)c1nc2cnc3ccsc3c2n1[C@H]1CC[C@H](CC#N)OC1 [Compound 5, ((2R,5S)-5-{2-[(1R)-1-hydroxyethyl]-1H-imidazo[4,5-d]thieno[3,2-b]pyridin-1-yl}tetrahydro-2H-pyran-2-yl)acetonitrile] | > 7.00 | >10 | 
N#CCC(C1CCN(c2nc3cccnc3o2)C1)n1cc(-c2ncnc3[nH]ccc23)cn1 (stereo not drawn) [Compound 7, 3-(1-[1,3]oxazolo[5,4-b]pyridin-2-ylpyrrolidin-3-yl)-3-[4-(7H-pyrrolo[2,3-d]pyrimidin-4-yl)-1H-pyrazol-1-yl]propanenitrile] | > 8.00 | >10 | 
N#CCC(CN1CCN(C(=O)c2ccc(C#N)cc2F)CC1)n1ccc(-c2ncnc3[nH]ccc23)c1 (stereo not drawn) [Compound 9, 4-[(4-{3-cyano-2-[3-(7H-pyrrolo[2,3-d]pyrimidin-4-yl)-1H-pyrrol-1-yl]propyl}piperazin-1-yl)carbonyl]-3-fluorobenzonitrile] | > 8.00 | >10 | 
N#CC[C@]1(n2cc(-c3ncnc4[nH]ccc34)cn2)C[C@H](N2CCN(C(=O)c3ccnc(C(F)(F)F)n3)CC2)C1 [Compound 10, [trans-1-[4-(7H-pyrrolo[2,3-d]pyrimidin-4-yl)-1H-pyrazol-1-yl]-3-(4-{[2-(trifluoromethyl)pyrimidin-4-yl]carbonyl}piperazin-1-yl)cyclobutyl]acetonitrile] | > 8.00 | >10 | 
N#CC[C@]1(n2cc(-c3ncnc4[nH]ccc34)cn2)C[C@H](N2CCC(Oc3cc(CN4CC(O)C4)cc(C(F)(F)F)n3)CC2)C1 [Compound 11, {trans-3-(4-{[4-[(3-hydroxyazetidin-1-yl)methyl]-6-(trifluoromethyl)pyridin-2-yl]oxy}piperidin-1-yl)-1-[4-(7H-pyrrolo[2,3-d]pyrimidin-4-yl)-1H-pyrazol-1-yl]cyclobutyl}acetonitrile] | > 8.00 | >10 | 
N#CC[C@]1(n2cc(-c3ncnc4[nH]ccc34)cn2)C[C@H](N2CCC(Oc3cc(CN4CCC[C@H]4CO)cc(C(F)(F)F)n3)CC2)C1 [Compound 12, {trans-3-(4-{[4-{[(2S)-2-(hydroxymethyl)pyrrolidin-1-yl]methyl}-6-(trifluoromethyl)pyridin-2-yl]oxy}piperidin-1-yl)-1-[4-(7H-pyrrolo[2,3-d]pyrimidin-4-l)-1H-pyrazol-1-yl]cyclobutyl}acetonitrile] | > 8.00 | >10 | 
N#CC[C@]1(n2cc(-c3ncnc4[nH]ccc34)cn2)C[C@H](N2CCC(Oc3cc(CN4CCC[C@@H]4CO)cc(C(F)(F)F)n3)CC2)C1 [Compound 13, {trans-3-(4-{[4-{[(2R)-2-(hydroxymethyl)pyrrolidin-1-yl]methyl}-6-(trifluoromethyl)pyridin-2-yl]oxy}piperidin-1-yl)-1-[4-(7H-pyrrolo[2,3-d]pyrimidin-4-yl)-1H-pyrazol-1-yl]cyclobutyl}acetonitrile] | > 8.00 | >10 | 
N#CCC1(n2cc(-c3ncnc4[nH]ccc34)cn2)CN([C@H]2CC[C@@H](Oc3cc(CCO)nc(C(F)(F)F)n3)CC2)C1 [Compound 18, {1-(cis-4-{[6-(2-hydroxyethyl)-2-(trifluoromethyl)pyrimidin-4-yl]oxy}cyclohexyl)-3-[4-(7H-pyrrolo[2,3-d]pyrimidin-4-yl)-1H-pyrazol-1-yl]azetidin-3-yl}acetonitrile] | > 8.00 | >10 | 
CCNCc1cc(O[C@H]2CC[C@@H](N3CC(CC#N)(n4cc(-c5ncnc6[nH]ccc56)cn4)C3)CC2)nc(C(F)(F)F)c1 [Compound 19, {1-(cis-4-{[4-[(ethylamino)methyl]-6-(trifluoromethyl)pyridin-2-yl]oxy}cyclohexyl)-3-[4-(7H-pyrrolo[2,3-d]pyrimidin-4-yl)-1H-pyrazol-1-yl]azetidin-3-yl}acetonitrile] | > 8.00 | >10 | 
CC(C)(O)c1cc(O[C@H]2CC[C@@H](N3CC(CC#N)(n4cc(-c5ncnc6[nH]ccc56)cn4)C3)CC2)nc(C(F)(F)F)c1 [Compound 20, {1-(cis-4-{[4-(1-hydroxy-1-methylethyl)-6-(trifluoromethyl)pyridin-2-yl]oxy}cyclohexyl)-3-[4-(7H-pyrrolo[2,3-d]pyrimidin-4-yl)-1H-pyrazol-1-yl]azetidin-3-yl}acetonitrile] | > 8.00 | >10 | 
N#CCC1(n2cc(-c3ncnc4[nH]ccc34)cn2)CN([C@H]2CC[C@@H](Oc3cc(CN4CC[C@@H](O)C4)cc(C(F)(F)F)n3)CC2)C1 [Compound 21, {1-(cis-4-{[4-{[(3R)-3-hydroxypyrrolidin-1-yl]methyl}-6-(trifluoromethyl)pyridin-2-yl]oxy}cyclohexyl)-3-[4-(7H-pyrrolo[2,3-d]pyrimidin-4-yl)-1H-pyrazol-1-yl]azetidin-3-yl}acetonitrile] | > 8.00 | >10 | 
N#CCC1(n2cc(-c3ncnc4[nH]ccc34)cn2)CN([C@H]2CC[C@@H](Oc3cc(CN4CC[C@H](O)C4)cc(C(F)(F)F)n3)CC2)C1 [Compound 22, {1-(cis-4-{[4-{[(3S)-3-hydroxypyrrolidin-1-yl]methyl}-6-(trifluoromethyl)pyridin-2-yl]oxy}cyclohexyl)-3-[4-(7H-pyrrolo[2,3-d]pyrimidin-4-yl)-1H-pyrazol-1-yl]azetidin-3-yl}acetonitrile] | > 8.00 | >10 | 
C[C@@H](CO)NCc1cc(OC2CCN([C@H]3C[C@](CC#N)(n4cc(-c5ncnc6[nH]ccc56)cn4)C3)CC2)nc(C(F)(F)F)c1 [Compound 23] | > 8.00 | >10 | 
C[C@@H](O)CNCc1cc(OC2CCN([C@H]3C[C@](CC#N)(n4cc(-c5ncnc6[nH]ccc56)cn4)C3)CC2)nc(C(F)(F)F)c1 [Compound 24, {trans-3-(4-{[4-({[(2R)-2-hydroxypropyl]amino}methyl)-6-(trifluoromethyl)pyridin-2-yl]oxy}piperidin-1-yl)-1-[4-(7H-pyrrolo[2,3-d]pyrimidin-4-yl)-1H-pyrazol-1-yl]cyclobutyl}acetonitrile] | > 8.00 | >10 | 
C[C@H](O)CNCc1cc(OC2CCN([C@H]3C[C@](CC#N)(n4cc(-c5ncnc6[nH]ccc56)cn4)C3)CC2)nc(C(F)(F)F)c1 [Compound 25, {trans-3-(4-{[4-({[(2S)-2-hydroxypropyl]amino}methyl)-6-(trifluoromethyl)pyridin-2-yl]oxy}piperidin-1-yl)-1-[4-(7H-pyrrolo[2,3-d]pyrimidin-4-yl)-1H-pyrazol-1-yl]cyclobutyl}acetonitrile] | > 8.00 | >10 | 
N#CC[C@]1(n2cc(-c3ncnc4[nH]ccc34)cn2)C[C@H](N2CCC(Oc3cc(CCO)cc(C(F)(F)F)n3)CC2)C1 [Compound 26, {trans-3-(4-{[4-(2-hydroxyethyl)-6-(trifluoromethyl)pyridin-2-yl]oxy}piperidin-1-yl)-1-[4-(7H-pyrrolo[2,3-d]pyrimidin-4-yl)-1H-pyrazol-1-yl]cyclobutyl}acetonitrile] | > 8.00 | >10 | 
C[C@@H]1CCN(C(=O)CC#N)C[C@@H]1N(C)c1ncnc2[nH]ccc12 [tofacitinib] |  |  | inhibits oxazolone-induced colitis

Source: US11596632B2, “JAK1 pathway inhibitors for the treatment of gastrointestinal disease” (Incyte Corporation, priority 2018, dated 2023)
